A short description of this data set: Pharmacokinetic profiles by cassette dosing in dog (IV and PO). The class given is in vivo. The settings on record: male beagle dogs, 1 mg/kg; for bioavailability: read-out: F (PO), percent bioavailability. The method, then:
The pharmacokinetic profiles of EXAMPLE 20, EXAMPLE 22, EXAMPLE 29 and EXAMPLE 31 were evaluated using cassette dosing protocols in dog. The cassette dosing protocol in dogs combined three test compounds with the reference compound (EXAMPLE 104 of commonly-owned U.S. Pat. No. 5,866,549), each at a dose of 1 mg/kg. The compounds for each cassette were formulated as a solution in an aqueous vehicle containing 10% ethanol and one equivalent hydrochloric acid. Groups of three male beagle dogs received either an intravenous dose (IV) or an oral dose (PO). Sequential blood samples were taken from each animal for 24 hours after dosing. The plasma concentrations of the test compound and reference compounds were simultaneously determined using HPLC-MS/MS following liquid-liquid extraction of the samples. The results are shown in TABLE 2, in which […] is plasma clearance; T1/2 and Tmax are expressed in hours; Cmax is expressed in μg/mL; AUC is expressed in μg·h/mL; F is percent bioavaibility; and volumes of distibution Vc and Vβ are volume of the central compartment and terminal phase distribution, respectively.

Like-named read-outs stand apart in the source and are kept apart here.

As a reminder, the bioavailability is dose-corrected exposure relative to a reference, in per cent. One may read the AUC as concentration integrated over time. A word on the Cmax: it is the peak of the concentration-time curve. A word on the Tmax: it is the time from dosing to the highest level.

For `CC[C@H]1OC(=O)[C@@](C)(F)C(=O)[C@H](C)[C@@H](O[C@@H]2O[C@H](C)C[C@H](N(C)C)[C@H]2O)[C@@](C)(OCC#Cc2ccc(-c3nnn(C)n3)s2)C[C@@H](C)C(=O)[C@H](C)[C@H]2NC(=O)O[C@@]21C` [3B, (3aS,4R,7S,9R,10R,11S,13R,15R,15aR)-10-(((2S,3R,4S,6R)-4-(dimethylamino)-3-hydroxy-6-methyltetrahydro-2H-pyran-2-yl)oxy)-4-ethyl-7-fluoro-3a,7,9,11,13,15-hexamethyl-11-((3-(5-(2-methyl-2H-tetraazol-5-yl)thien-2-yl)prop-2-ynyl)oxy)octahydro-2H-oxacyclotetradecino [4,3-d][1,3]oxazole-2,6,8,14(1H,7H,9H)-tetrone], for the setting “dog, plasma, oral dose”, the bioavailability is 73.6%. Under “intravenous dose”, the “AUC (IV)” value came out at 7290 ng·h/mL; the “CLp (IV), plasma clearance” value was 0.16; the “T½ (IV)” value is 14.4 h; the “Vc (IV), volume of the central compartment” value (“Vc (IV), volume” for short) was 1.6. The “Vβ (IV), terminal phase distribution volume” value (from here on “Vβ (IV)”) (intravenous dose) stood at 3.1. Under “oral dose”, the “AUC (PO)” value is 5140 ng·h/mL, the “Cmax (PO)” value amounted to 250 ng/mL, the “Tmax (PO)” value came out at 2 h and the “T½ (PO)” value came out at 11.1 h.
In the case of `CC[C@H]1OC(=O)[C@H](C)C(=O)[C@H](C)[C@@H](O[C@@H]2O[C@H](C)C[C@H](N(C)C)[C@H]2O)C(C)(OCC#Cc2ccc(-c3nnn(C)n3)s2)C[C@@H](C)C(=O)[C@H](C)[C@H]2NC(=O)O[C@@]21C` (stereo in doubt) [7B, (3aS,4R,7R,9R,10R,11S,13R,15R,15aR)-10-(((2S,3R,4S,6R)-4-(dimethylamino)-3-hydroxy-6-methyltetrahydro-2H-pyran-2-yl)oxy)-4-ethyl-3a,7,9,11,13,15-hexamethyl-11-((3-(5-(2-methyl-2H-tetraazol-5-yl)thien-2-yl)prop-2-ynyl)oxy)octahydro-2H-oxacyclotetradecino[4,3-d][1,3]oxazole-2,6,8,14(1H,7H,9H)-tetrone], the AUC (dog, in vivo, intravenous dose, read-out: AUC (IV)) worked out at 11900 ng·h/mL. Further, under “dog, in vivo, intravenous dose, read-out: CLp (IV), plasma clearance (converted)”, the clearance was 1.5 mL/min/kg. The half-life (dog, in vivo, intravenous dose, read-out: T½ (IV) (converted)) is 9 h. Moreover, for the setting “dog, in vivo, oral dose”, the highest level (Cmax) was 720 ng/mL, the time of peak concentration (Tmax) was 1.3 h and the bioavailability is 80.3%. In addition, the area under the curve (AUC) (dog, in vivo, oral dose, read-out: AUC (PO)) stood at 9660 ng·h/mL. For the same molecule, for the setting “dog, in vivo, oral dose, read-out: T½ (PO) (converted)”, the half-life is 6.7 h. For the setting “intravenous dose”, the “Vc (IV), volume” value is 0.9 and the “Vβ (IV)” value is listed as 1.2.
Consider `CC[C@H]1OC(=O)[C@H](C)C(=O)[C@H](C)[C@@H](O[C@@H]2O[C@H](C)C[C@H](N(C)C)[C@H]2O)[C@@](C)(OC/C=C/c2ccc(-c3nnn(C)n3)s2)C[C@@H](C)C(=O)[C@H](C)[C@H]2NC(=O)O[C@@]21C` [4B, (3aS,4R,7R,9R,10R,11S,13R,15R,15aR)-10-(((2S,3R,4S,6R)-4-(dimethylamino)-3-hydroxy-6-methyltetrahydro-2H-pyran-2-yl)oxy)-4-ethyl-3a,7,9,11,13,15-hexamethyl-11-(((2E)-3-(5-(2-methyl-2H-tetraazol-5-yl)thien-2-yl)prop-2-enyl)oxy)octahydro-2H-oxacyclotetradecino[4,3-d][1,3]oxazole-2,6,8,14(1H,7H,9H)-tetrone], for which, for the setting “dog, plasma, oral dose”, the bioavailability amounted to 63%. Also, for the setting “intravenous dose”, the “AUC (IV)” value was 11520 ng·h/mL; the “CLp (IV), plasma clearance” value is listed as 0.09; the “T½ (IV)” value came out at 8.4 h; the “Vc (IV), volume” value turned out to be 0.9. Also, the “Vβ (IV)” value (intravenous dose) turned out to be 1.1. For the same molecule, where the note is “oral dose”, the “AUC (PO)” value amounted to 6770 ng·h/mL, the “Cmax (PO)” value turned out to be 490 ng/mL, the “Tmax (PO)” value turned out to be 1.5 h and the “T½ (PO)” value turned out to be 7.8 h.
Take `CC[C@H]1OC(=O)[C@@](C)(F)C(=O)[C@H](C)[C@@H](O[C@@H]2O[C@H](C)C[C@H](N(C)C)[C@H]2O)[C@@](C)(OC/C=C/c2ccc(-c3nnn(C)n3)s2)C[C@@H](C)C(=O)[C@H](C)[C@H]2NC(=O)O[C@@]21C` [8B, (3aS,4R,7S,9R,10R,11S,13R,15R,15aR)-10-(((2S,3R,4S,6R)-4-(dimethylamino)-3-hydroxy-6-methyltetrahydro-2H-pyran-2-yl)oxy)-4-ethyl-7-fluoro-3a,7,9,11,13,15-hexamethyl-11-(((2E)-3-(5-(2-methyl-2H-tetraazol-5-yl)thien-2-yl)prop-2-enyl)oxy)octahydro-2H-oxacyclotetradecino[4,3-d][1,3]oxazole-2,6,8,14(1H,7H,9H)-tetrone]: the bioavailability (dog, plasma, oral dose) was 81.1%. Further, for the setting “intravenous dose”, the “AUC (IV)” value was 16130 ng·h/mL; the “CLp (IV), plasma clearance” value is reported as 0.07; the “T½ (IV)” value worked out at 22.9 h; the “Vc (IV), volume” value is recorded as 1.1. Moreover, the “Vβ (IV)” value (intravenous dose) was 2.3. Moreover, for the setting “oral dose”, the “AUC (PO)” value amounted to 12600 ng·h/mL, the “Cmax (PO)” value is 480 ng/mL, the “Tmax (PO)” value turned out to be 4.5 h and the “T½ (PO)” value was found to be 17.2 h.

Values taken from patent publication US20030207820A1, “Antibacterial compounds with improved pharmacokinetic profiles” (priority 2002, published 2003).
